Reference: US6599901B1, “Pyridone substituted benzothiazole derivatives” (Hoffman-La Roche Inc., priority 2001, dated 2003)

Assays:
[1] = target: T1, human adenosine A1 receptor (Homo sapiens, UniProt P30542); assay: [3H]-DPCPX binding assay, human adenosine A1 receptor (CHO cell membranes, SPA); details: recombinant human A1 receptor in CHO membranes; [3H]-DPCPX 0.6 nM; Ki by Cheng-Prussoff; read-out: hA1 (pKi) (converted)
T1 construct: expressed in transfected cells; host or cells: CHO cells, semliki forest virus expression system
T1 sequence (P30542 1-326): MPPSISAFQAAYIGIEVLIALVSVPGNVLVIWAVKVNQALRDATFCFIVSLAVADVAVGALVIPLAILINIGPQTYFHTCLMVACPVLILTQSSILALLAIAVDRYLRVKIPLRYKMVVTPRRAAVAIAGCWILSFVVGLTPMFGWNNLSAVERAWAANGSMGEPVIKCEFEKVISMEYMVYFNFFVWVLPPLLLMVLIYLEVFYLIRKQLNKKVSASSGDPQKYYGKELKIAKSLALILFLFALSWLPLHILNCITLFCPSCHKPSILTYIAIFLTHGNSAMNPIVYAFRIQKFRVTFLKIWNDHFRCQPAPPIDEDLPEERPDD
Experimental: (§1) The human adenosine A1 receptor was recombinantly expressed in chinese hamster ovary (CHO) cells using the semliki forest virus expression system. Cells were harvested, washed twice by centrifugation, homogenised and again washed by centrifugation. The final washed membrane pellet was suspended in a Tris (50 mM) buffer containing 120 mM NaCl, 5 mM KCl, 2 mM CaCl2 and 10 mM MgCl2 (pH 7.4) (buffer A). The [^3H]-DPCPX (([propyl-^3H]8-cyclopentyl-1,3-dipropyxanthine); 0.6 nM) binding assay was carried out in 96-well plates in the presence of 2.5 μg of membrane protein, 0.5 mg of Ysi-poly-1-lysine SPA beads and 0.1 U adenosine deaminase in a final volume of 200 μl of buffer A. Non-specific binding was defined using xanthine amine congener (XAC; 2 μM). Compounds were tested at 10 concentrations from 10 μM-0.3 nM. All assays were conducted in duplicate and repeated at least two times. Assay plates were incubated for 1 hour at room temperature before centrifugation and then bound ligand determined using a Packard Topcount scintillation counter. IC50 values were calculated using a non-linear curve fitting program and Ki values calculated using the Cheng-Prussoff equation.

[2] = target: T2, human adenosine A2A receptor (Homo sapiens, UniProt P29274); assay: [3H]-SCH-58261 binding assay, human adenosine A2A receptor (CHO cell membranes, SPA); details: recombinant human A2A receptor in CHO membranes; [3H]-SCH-58261 1 nM; Ki by Cheng-Prussoff; read-out: hA2 (pKi) (converted)
T2 construct: expressed in transfected cells; host or cells: CHO cells, semliki forest virus expression system
Experimental: as §1, with “A2A” for “A1”, “[^3H]-SCH-58261 (Dionisotti et al., 1997, Br J Pharmacol 121, 353; 1” for “[^3H]-DPCPX (([propyl-^3H]8-cyclopentyl-1,3-dipropyxanthine); 0.6”, “[…]” for “μg”

T2 sequence (P29274 whole entry): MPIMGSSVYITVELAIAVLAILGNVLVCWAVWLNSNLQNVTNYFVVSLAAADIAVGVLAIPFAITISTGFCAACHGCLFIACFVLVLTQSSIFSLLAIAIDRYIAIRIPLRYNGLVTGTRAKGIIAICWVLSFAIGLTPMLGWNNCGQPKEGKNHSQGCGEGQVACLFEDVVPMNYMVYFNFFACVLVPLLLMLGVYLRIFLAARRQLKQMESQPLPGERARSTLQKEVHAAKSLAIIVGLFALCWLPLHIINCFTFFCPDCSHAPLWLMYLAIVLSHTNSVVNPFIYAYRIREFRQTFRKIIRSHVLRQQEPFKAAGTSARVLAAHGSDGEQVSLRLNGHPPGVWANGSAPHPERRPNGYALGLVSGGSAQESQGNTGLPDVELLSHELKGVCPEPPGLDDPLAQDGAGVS

SMILES | Ki [1] [nM] | Ki [2] [nM]
COc1ccc(N2CCOCC2)c2sc(NC(=O)c3ccn(Cc4ccccc4)c(=O)c3)nc12 [Example 1, 1-Benzyl-2-oxo-1,2-dihydro-pyridine-4-carboxylic Acid (4-Methoxy-7-morpholin-4-yl-benzothiazol-2-yl)-amide] | 1260 | 2.14
CCOC(=O)Cn1ccc(C(=O)Nc2nc3c(OC)ccc(N4CCOCC4)c3s2)cc1=O [Example 2, [4-(4-Methoxy-7-morpholin-4-yl-benzothiazol-2-ylcarbamoyl)-2-oxo-2H-pyridin-1-yl]-acetic Acid Ethyl Ester] | – | 6.46
CCC(=O)Cn1ccc(C(=O)Nc2nc3c(OC)ccc(N4CCOCC4)c3s2)cc1=O [Example 3, 2-oxo-1-(2-oxo-Butyl)-1,2-dihydro-pyridine-4-carboxylic Acid (4-Methoxy-7-morpholin-4-yl-benzothiazol-2-yl)-amide] | – | 5.75
COc1ccc(N2CCOCC2)c2sc(NC(=O)c3ccn(Cc4ccccn4)c(=O)c3)nc12 [Example 4, 2-oxo-1-Pyridin-2-ylmethyl-1,2-dihydro-pyridine-4-carboxylic Acid (4-Methoxy-7-morpholin-4-yl-benzothiazol-2-yl)-amide] | – | 7.94
COc1ccc(N2CCOCC2)c2sc(NC(=O)c3ccn(CC(=O)N4CCOCC4)c(=O)c3)nc12 [Example 5, 1-(2-Morpholin-4-yl-2-oxo-ethyl)-2-oxo-1,2-dihydro-pyridine-4-carboxylic Acid (4-Methoxy-7-morpholin-4-yl-benzothiazol-2-yl)-amide] | – | 58.9
COc1ccc(N2CCOCC2)c2sc(NC(=O)c3ccn(CC(=O)N(C)C)c(=O)c3)nc12 [Example 6, 1-Dimethylcarbamoylmethyl-2-oxo-1,2-dihydro-pyridine-4-carboxylic Acid (4-Methoxy-7-morpholin-4-yl-benzothiazol-2-yl)-amide] | – | 50.1
